Experimental data from PubChem BioAssay AID1996.
≈ marks a conversion by molar mass, not a printed value.

settings: buffer; pH 7.4; 200.0 µM

| Compound | solubility kinetic [µg/mL] |
| --- | --- |
| CCOc1cc(C(=O)OCC(=O)Nc2cccc(S(=O)(=O)NC3=NCCCCC3)c2)cc(OCC)c1OCC | 24.2 (≈ 43.1 µM) |
| Cc1nc(-c2cccs2)sc1C(=O)O | > 33.8 |
| O=C(COC(=O)c1ccc(Br)o1)Nc1ccc2c(c1)OCCO2 | 5.1 (≈ 13.3 µM) |
| CC1=C(C(=O)OCC2CCCCC2)C(c2ccc(O)cc2)NC(=O)N1 (centres undefined) | 3.4 (≈ 9.87 µM) |
| CC(=O)O[C@H](CC(=O)O)C[N+](C)(C)C.[Cl-] | > 36 |
| Cc1ccc(N2C(=O)CC(Sc3nccc(C)n3)C2=O)cc1 (centres undefined) | > 47 |
| O=C(COC(=O)c1cnccn1)c1ccc([N+](=O)[O-])cc1 | > 43.1 |
| O=C(NC(=S)N1CCCC1)c1ccccc1Cl | 35.7 (≈ 133 µM) |
| O=C(COC(=O)c1ccc2ncsc2c1)NCc1ccccc1Cl | 10.4 (≈ 28.8 µM) |
| O=C(O)CSCc1nc2cccnc2n1C1CCCCC1 | 42.1 (≈ 138 µM) |
| CC(C)CC(=O)Nc1cccc(-c2nc3ncccc3o2)c1 | 31.8 (≈ 108 µM) |
| CCC(C)NC(=O)c1cc2c(=O)n3ccccc3nc2s1 (centres undefined) | 33 (≈ 109 µM) |
| Cc1noc(C)c1C(=O)OCC(=O)Nc1ncc(C(F)(F)F)cc1Cl | 16.8 (≈ 44.5 µM) |
| COc1ccc(Cl)cc1NC(=O)COC(=O)C1CC(=O)N(Cc2ccccc2)C1 (centres undefined) | 57.4 (≈ 138 µM) |
| COc1ccccc1NC(=O)NC1CCS(=O)(=O)C1 (centres undefined) | > 42.6 |
| O=C(Nc1cccc(F)c1)c1ccc(Cn2cc([N+](=O)[O-])cn2)o1 | > 49.5 |
| COc1ccc(OC(=O)N2CCOCC2)cc1 | > 35.6 |
| CCC(C)C(=O)Nc1ccccc1N1CCN(c2ccc(F)cc2)CC1 (centres undefined) | 2.9 (≈ 8.16 µM) |
| O=C(CCN1C(=O)C2C3CCC(C3)C2C1=O)OCC(=O)c1ccc(Cl)cc1 (centres undefined) | > 58.5 |
| Cc1cc(C)n2nc(SC(C)C(=O)N(C)C3CCCCC3)nc2n1 (centres undefined) | > 52.1 |
| O=C(Cc1cccs1)NCCc1csc(-c2ccccc2)n1 | > 49.3 |
| O=[N+]([O-])c1cccnc1Sc1ccc(Cl)cc1 | 0.7 (≈ 2.62 µM) |
| Cc1ccc(Oc2c(C)nc(-c3ccccc3)[nH]c2=O)cc1 | 1 (≈ 3.42 µM) |
| O=C(/C=C/c1ccco1)NCc1ccco1 | > 32.6 |

| Compound | solubility kinetic [µg/mL] |
| --- | --- |
| COc1ccc(OC)c(NC(=O)CN2CCc3ccccc3C2)c1 | 14.9 (≈ 45.7 µM) |
| Cc1ccc(C(C)C)cc1S(=O)(=O)NCc1ccccn1 | > 45.7 |
| COc1ccccc1N(CC(=O)N1CCOCC1)S(C)(=O)=O | > 49.3 |
| CS(=O)c1ccc(-n2c(=O)n(Cc3ccccc3)c(=O)c3[nH]cnc32)cc1 (centres undefined) | > 57.1 |
| Cc1cccc(N2CCN(C(=O)c3ccc4[nH]c(C)c(C)c4c3)CC2)c1C | 4.2 (≈ 11.6 µM) |
| COc1ccc(CN(C)CC(=O)N2CCc3ccccc3C2)cc1 | > 48.7 |
| CCCC(=O)Nc1nnc(SCC(=O)N2CCCCC2)s1 | > 49.3 |
| Cc1ccc(N2C(=O)C3CCC(C)(C2=O)C3(C)C)cc1 (centres undefined) | 26.7 (≈ 98.4 µM) |
| CCN1CCN(c2ccc(S(=O)(=O)N3CCCC3)cn2)CC1 | 34.6 (≈ 107 µM) |
| O=S1(=O)CCC(NC(=S)Nc2ccc3ccccc3c2)C1 (centres undefined) | 15.3 (≈ 47.7 µM) |
| CC(C)NC(=O)[C@H]1N2C(=O)c3ccccc3C2SC1(C)C (some centres undefined) | > 45.7 |
| Cc1cnc(NC(=O)c2ccc3ncsc3c2)s1 | 3.5 (≈ 12.7 µM) |
| O=C1CSC(=S)N1c1ccc(F)c(Cl)c1 | 1.3 (≈ 4.97 µM) |
| NS(=O)(=O)c1cccc(NC(=O)c2ccno2)c1 | > 40.1 |
| O=C1NC(=Nc2ccccc2)S/C1=C\c1cccnc1 | 2 (≈ 7.11 µM) |
| O=C(CN1c2cccc3cccc(c23)S1(=O)=O)Nc1ccc(F)c(F)c1F | 2.9 (≈ 7.39 µM) |
| CCN1C(=O)CSC1=Nc1ccc(C(=O)O)cc1 | 39 (≈ 148 µM) |
| COc1ccccc1C(=O)Nc1ccccc1C(=O)Nc1ccccc1 | < 0.4 |
| Cc1cccc(NC(=O)Nc2ccccn2)c1C | 1.2 (≈ 4.97 µM) |
| Cc1ccc(C)c(OCCCN2CCNCC2)c1.Cl | 39.3 |
| O=C(Cc1ccc(Cl)cc1)N1CCc2ccccc2C1 | 37.2 (≈ 130 µM) |
| CCN(CC)C(=O)Cn1cc(/C=C(\C#N)C(=O)NC2CC2)c2ccccc21 | 43 (≈ 118 µM) |
| O=C(O)CC(SCC(=O)NC1CCCc2ccccc21)C(=O)O (centres undefined) | > 50.6 |
| Cc1ccc(OCC(O)CNC2CCCC2)c(C)c1.Cl (centres undefined) | 41.3 |

| Compound | solubility kinetic [µg/mL] |
| --- | --- |
| CCN(C(=O)c1cccs1)c1nc(-c2ccc(OC)cc2)cs1 | 0.6 (≈ 1.74 µM) |
| CN1C(=O)NC(c2ccc(O)cc2)C2=C1CN(c1ccccc1)C2=O (centres undefined) | 7 (≈ 20.9 µM) |
| O=C(c1ccc([N+](=O)[O-])cc1)N1CCN(C(=O)C2CCCCC2)CC1 | > 51.8 |
| CCN(CC)C(C(=O)NC1CCCCC1)c1ccc(C)cc1 (centres undefined) | > 45.4 |
| COc1ccc(C)cc1S(=O)(=O)n1cnc(C)c1 | > 39.9 |
| Cc1ccc2oc(=O)cc(CN3CC(C)OC(C)C3)c2c1 (centres undefined) | > 43.1 |
| CCOC(=O)N1CCN(c2ccccc2OC)CC1 | > 39.6 |
| CCN(CC)C(=O)C1=C(C)NC(=S)NC1c1ccc(C)s1 (centres undefined) | 44.1 (≈ 136 µM) |
| COc1ccc(NC(=O)C2CCOC2=O)cc1 (centres undefined) | > 35.3 |
| O=C(/C=C/c1ccccc1)OCN1C(=O)c2ccccc2C1=O | 2.6 (≈ 8.46 µM) |
| COCC(C)NC(=O)COCc1cc(-c2ccc3c(c2)OCO3)on1 (centres undefined) | 39 (≈ 112 µM) |
| COc1cc2c(cc1OC)CN(C(=O)c1cccc([N+](=O)[O-])c1)CC2 | 36 (≈ 105 µM) |
| CCCCC(=O)NNC(=O)N1c2ccccc2Sc2ccccc21 | > 51.2 |
| O=C1N=c2ccccc2=C1c1c(O)[nH]c2c(C(F)(F)F)cccc12 | < 0.4 |
| CN(C)S(=O)(=O)c1ccc(Cl)c(NC(=O)COC(=O)CCC2CCCCC2)c1 | 7.3 (≈ 16.9 µM) |
| Cc1ccc(C2=CSC3=NS(=O)(=O)CCN23)cc1 | > 42.1 |
| CCN(c1ccccc1)S(=O)(=O)c1ccc2c(c1)OCCO2 | 26.3 (≈ 82.3 µM) |
| CN1CCC(CNC(=O)Nc2ccccc2)(c2ccccc2)CC1 | > 48.5 |
| CCOC(=O)c1cn(CC)c2c(ccc3ccccc32)c1=O | < 0.6 |
| CSc1ccc(C2NC(=O)CCC2[N+](=O)[O-])cc1 (centres undefined) | > 39.9 |
| CC(C)(C)NC(=O)c1ccc(COc2ccc(Cl)cc2Cl)o1 | 5 (≈ 14.6 µM) |
| Clc1nc(NCc2ccco2)nc(N2CCCCC2)n1 | 0.3 (≈ 1.02 µM) |
| Fc1cccc(-c2csc(-c3ccno3)n2)c1 | 3.6 (≈ 14.6 µM) |
| Cc1[nH]cnc1C(=O)N/N=C/c1c(Cl)cccc1Cl | > 44.6 |

| Compound | solubility kinetic [µg/mL] |
| --- | --- |
| CC1CCCC(C)N1C(=O)Cn1cnc2cc([N+](=O)[O-])ccc2c1=O (centres undefined) | > 51.7 |
| O=C(c1cccc(S(=O)(=O)N2CCCc3ccccc32)c1)N1CCN(c2ccccc2)CC1 | 3.6 (≈ 7.8 µM) |
| CCn1c(=O)c(C(=O)NCc2ccc(F)cc2)c(O)c2ccccc21 | < 0.4 |
| Fc1ccc(OCCCn2ccnc2)cc1 | 23.3 (≈ 106 µM) |
| COc1ccc(CN2CCS(=O)(=O)CC2)cc1OC | > 42.8 |
| C=CCn1c(NCc2ccc(OC)cc2O)nc2ccccc21 | 37.9 (≈ 123 µM) |
| CC(C)C(C)N(Cc1cccc(C(=O)O)c1)C(=O)c1ccc2ccccc2n1 (centres undefined) | 31.7 (≈ 84.2 µM) |
| CCn1c(NCCCO)nc2c(c1=O)C(C)(CC)Cc1ccccc1-2 (centres undefined) | 47 (≈ 138 µM) |
| CC(NC(=S)N1CCN(c2ccccc2)CC1)c1ccccc1 (centres undefined) | 0.4 (≈ 1.23 µM) |
| CSc1ccc(/C=C/C(=O)NC(=O)c2ccccc2O)cc1 | 3.9 (≈ 12.4 µM) |
| O=C(/C=C/c1cccnc1)c1cccc(O)c1 | 29.9 (≈ 133 µM) |
| O=[N+]([O-])c1ccc(NCc2ccc3c(c2)OCO3)cc1 | < 0.3 |
| Cc1c(NC2=CC(=O)CC(C)(C)C2)c(=O)n(-c2ccccc2)n1C | > 48.8 |
| CC(=O)c1c(C)[nH]c(C(=O)COC(=O)c2cc(C)oc2C)c1C | 13.1 (≈ 41.3 µM) |
| Cc1ccc(NC(=O)c2noc3c2CCC3)cc1C | 4.7 (≈ 18.3 µM) |
| O=C(c1ccc2ccccc2c1)N1CCCC1 | 19.7 (≈ 87.4 µM) |
| CCc1ccc(N2CC(C(=O)Nc3cc(C)on3)CC2=O)cc1 (centres undefined) | 26 (≈ 83 µM) |
| CN1CCN(C(=O)CSc2nc3c(c(=O)n(C)c(=O)n3C)n2C)CC1 | 48.1 (≈ 131 µM) |
| CCCN1CCCC(C(=O)c2cc(C)c(OC)c(C)c2)C1 (centres undefined) | 39 (≈ 135 µM) |
| O=C(Cc1ccccc1)NCCc1cnc[nH]1 | > 34.4 |
| Cc1cc(=O)[nH]c(SCC(=O)Nc2ccc(F)c([N+](=O)[O-])c2)n1 | > 50.7 |
| Cc1cccc(NC(=O)C(=O)NCC2CCCO2)c1 (centres undefined) | > 39.3 |
| CC(C)NC(=S)N1CCCN(c2ncccc2[N+](=O)[O-])CC1 | > 48.5 |
| COc1ccc(NC(=O)c2cc(C)no2)cc1OC | > 39.3 |

| Compound | solubility kinetic [µg/mL] |
| --- | --- |
| Cc1cnc(C(=O)NC2CCSc3ccccc32)cn1 (centres undefined) | 26.2 (≈ 91.8 µM) |
| Cc1ccc(N2CCN(C(=O)c3cccs3)CC2)c(C)c1 | 2.3 (≈ 7.66 µM) |
| C=CC[N+]1(C)C2CCC1CC(O)C2.[Br-] (centres undefined) | > 39.3 |
| O=[N+]([O-])c1ccc(NCc2ccc(Cl)cc2)nc1 | 1.2 (≈ 4.55 µM) |
| O=C(NC1CCCCC1)N1CCc2ccccc2C1 | > 38.8 |
| Cc1ccc(S(=O)(=O)NC2CCCCCC2)cc1C(N)=O | > 46.6 |
| CC(C)C(NC(=O)c1ccc(Cl)cc1Cl)C(=O)N1CCN(S(=O)(=O)c2ccccc2)CC1 (centres undefined) | 2 (≈ 4.01 µM) |
| CC(=O)c1ccc(-c2ccc(C(=O)NCC3CCCO3)o2)cc1 (centres undefined) | > 47 |
| CNC(=O)COC(=O)c1c2c(nc3ccccc13)CCC2 | 39.1 (≈ 138 µM) |
| O=C(O)C(=O)O.c1ccc(CCNC2CCCCCC2)cc1 | 45.3 |
| Cc1ccc(NC(=O)CC(=O)Nc2ccc(C)cc2)cc1 | < 0.3 |
| COc1ccc(NC(=O)CS(=O)(=O)c2ccccc2Cl)cc1 | 43.8 (≈ 129 µM) |
| COC(=O)c1cc(-c2cccs2)nc2ccccc12 | 9.6 (≈ 35.6 µM) |
| O=C(O)CN1CCN(Cc2cccc(Cl)c2)C1=O | > 40.3 |
| CC(OC(=O)c1c(F)cccc1F)C(=O)NCCC1=CCCCC1 (centres undefined) | > 50.6 |
| O=[N+]([O-])c1cccnc1N1CCCNCC1 | 30.4 (≈ 137 µM) |
| COc1cccc(NC(=O)Nc2nc(SC)ns2)c1 | 1.3 (≈ 4.39 µM) |
| O=C(NCCc1ccc(Cl)cc1)c1cccs1 | > 39.9 |
| CN(c1ccccc1)S(=O)(=O)c1ccc(Cl)nc1 | 40.1 (≈ 142 µM) |
| COc1ccc(NC(=O)N2CCCC2C(=O)NC2CCCC2)cc1 (centres undefined) | > 49.7 |
| COc1ccccc1NS(=O)(=O)c1ccc(C(=O)NCc2ccc(S(N)(=O)=O)cc2)cc1 | 20.3 (≈ 42.7 µM) |
| CN(C)c1ccncc1C(=O)Nc1ccc(F)cc1F | > 41.6 |
| CSc1ccc(/C=C/C(=O)OCC(=O)N(C)CCC#N)cc1 | 29.9 (≈ 93.9 µM) |
